Source: US11787825B2 (priority 2021, dated 2023)
Values after ≈ are worked out from the molar mass of the structure shown. Marks after values point to notes of the source that are not given here.

Assays:
[1] = 1.0% DMSO, 24-hour incubation at ambient temperature, maximum theoretical compound concentration 100 μM; for pH 2 solubility: 0.1N HCL; for pH 7 solubility: 1×PBS buffer (pH 7.4)
[2] = Beagle, in vivo, po; for Dog F % (suspension): pH 2
physchem = conditions: 25 °C, thermodynamic from solid
[3] = fasted state simulated intestinal fluid (FaSSIF), fassif
[4] = fed state simulated intestinal fluid (FeSSIF), fessif

SMILES	pH 2 solubility [1] [μM]	pH 7 solubility [1] [μM]	Dog F % (suspension) [2] [%]	solubility (physchem; [3]) [µg/mL]	solubility (physchem; [4]) [µg/mL]	solubility (physchem; fassif) [µg/mL]	solubility (physchem; fessif) [µg/mL]	Dog F % (solution) [2]
CC(C)(C#Cc1ccc(-c2ccc(Cl)c3c(N(C(=O)CCCN(CCC(=O)O)C(=O)OCOP(=O)(O)O)S(C)(=O)=O)nn(CC(F)(F)F)c23)c([C@H](Cc2cc(F)cc(F)c2)NC(=O)Cn2nc(C(F)(F)F)c3c2C(F)(F)[C@@H]2C[C@H]32)n1)S(C)(=O)=O [Compound 31, 3-((4-(N-(4-chloro-7-(2-((S)-1-(2-((3bS,4aR)-5,5-difluoro-3-(trifluoromethyl)-3b,4,4a,5-tetrahydro-1H-cyclopropa[3,4]cyclopenta[1,2-c]pyrazol-1-yl)acetamido)-2-(3,5-difluorophenyl)ethyl)-6-(3-methyl-3-(methylsulfonyl)but-1-yn-1-yl)pyridin-3-yl)-1-(2,2,2-trifluoroethyl)-1H-indazol-3-yl)methylsulfonamido)-4-oxobutyl)(((phosphonooxy)methoxy)carbonyl)amino)propanoic acid]	1	79	15	2930 (≈ 2290 µM)	902 (≈ 705 µM)			
CC(C)(CNC(=O)OCOP(=O)(O)O)CC(=O)N(c1nn(CC(F)(F)F)c2c(-c3ccc(C#CC(C)(C)S(C)(=O)=O)nc3[C@H](Cc3cc(F)cc(F)c3)NC(=O)Cn3nc(C(F)(F)F)c4c3C(F)(F)[C@@H]3C[C@H]43)ccc(Cl)c12)S(C)(=O)=O [Compound 41, (phosphonooxy)methyl (4-(N-(4-chloro-7-(2-((S)-1-(2-((3bS,4aR)-5,5-difluoro-3-(trifluoromethyl)-3b,4,4a,5-tetrahydro-111-cyclopropa[3,4]cyclopenta[1,2-c]pyrazol-1-yl)acetamido)-2-(3,5-difluorophenyl)ethyl)-6-(3-methyl-3-(methylsulfonyl)but-1-yn-1-yl)pyridin-3-yl)-1-(2,2,2-trifluoroethyl)-1H-indazol-3-yl)methylsulfonamido)-2,2-dimethyl-4-oxobutyl)carbamate]	1	100	4	1140 (≈ 927 µM)	440 (≈ 356 µM)			
Cc1cc(CC(=O)O)cc(OP(=O)(O)O)c1C(C)(C)CC(=O)N(c1nn(CC(F)(F)F)c2c(-c3ccc(C#CC(C)(C)S(C)(=O)=O)nc3[C@H](Cc3cc(F)cc(F)c3)NC(=O)Cn3nc(C(F)(F)F)c4c3C(F)(F)[C@@H]3C[C@H]43)ccc(Cl)c12)S(C)(=O)=O [Compound 47, 2-(4-(4-(N-(4-chloro-7-(2-((S)-1-(2-((3bS,4aR)-5,5-difluoro (trifluoromethyl)-3b,4,4a,5-tetrahydro-1H-cyclopropa[3,4]cyclopenta[1,2-c]pyrazolyl)acetamido)-2-(3,5-difluorophenyl)ethyl)-6-(3-methyl-3-(methylsulfonyl)but-1-ynyl)pyridin-3-yl)-1-(2,2,2-trifluoroethyl)-1H-indazol-3-yl)methylsulfonamido)-2-methyloxobutan-2-yl)-3-methyl-5-(phosphonooxy)phenyl)acetic acid]			7			1420 (≈ 1100 µM)	226 (≈ 174 µM)	
CN(CCCC(=O)N(c1nn(CC(F)(F)F)c2c(-c3ccc(C#CC(C)(C)S(C)(=O)=O)nc3[C@H](Cc3cc(F)cc(F)c3)NC(=O)Cn3nc(C(F)(F)F)c4c3C(F)(F)[C@@H]3C[C@H]43)ccc(Cl)c12)S(C)(=O)=O)C(=O)OCOP(=O)(O)O [Compound 32, (phosphonooxy)methyl (4-(N-(4-chloro-7-(2-((S)-1-(2-((3bS,4aR)-5,5-difluoro-3-(trifluoromethyl)-3b,4,4a,5-tetrahydro-111-cyclopropa[3,4]cyclopenta [1,2-c]pyrazol-1-yl)acetamido)-2-(3,5-difluorophenyl)ethyl)-6-(3-methyl-3-(methylsulfonyl)but-1-yn-1-yl)pyridin-3-yl)-1-(2,2,2-trifluoroethyl)-1H-indazol-3-yl)methylsulfonamido)-4-oxobutyl)(methyl)carbamate]	1	100		194 (≈ 159 µM)	210 (≈ 172 µM)			31^b %
CC(C)(C#Cc1ccc(-c2ccc(Cl)c3c(N(C(=O)CCCN(CC(=O)O)C(=O)OCOP(=O)(O)O)S(C)(=O)=O)nn(CC(F)(F)F)c23)c([C@H](Cc2cc(F)cc(F)c2)NC(=O)Cn2nc(C(F)(F)F)c3c2C(F)(F)[C@@H]2C[C@H]32)n1)S(C)(=O)=O [Compound 30, N-(4-(N-(4-chloro-7-(2-((S)-1-(2-((3bS,4aR)-5,5-difluoro-3-(trifluoromethyl)-3b,4,4a,5-tetrahydro-1H-cyclopropa[3,4]cyclopenta[1,2-c]pyrazol-1-yl)acetamido)-2-(3,5-difluorophenyl)ethyl)-6-(3-methyl-3-(methylsulfonyl)but-1-yn-1-yl)pyridin-3-yl)-1-(2,2,2-trifluoroethyl)-1H-indazol-3-yl)methylsulfonamido)-4-oxobutyl)-N-(((phosphonooxy)methoxy)carbonyl)glycine]	1	100	18	> 1100	5830 (≈ 4600 µM)			18^c %
CC(C)(CCN(CC(=O)O)C(=O)OCOP(=O)(O)O)C(=O)N(c1nn(CC(F)(F)F)c2c(-c3ccc(C#CC(C)(C)S(C)(=O)=O)nc3[C@H](Cc3cc(F)cc(F)c3)NC(=O)Cn3nc(C(F)(F)F)c4c3C(F)(F)[C@@H]3C[C@H]43)ccc(Cl)c12)S(C)(=O)=O [Compound 43, N-(4-(N-(4-chloro-7-(2-((S)-1-(2-((3bS,4aR)-5,5-difluoro-3-(trifluoromethyl)-3b,4,4a,5-tetrahydro-1H-cyclopropa[3,4]cyclopenta[1,2-c]pyrazol-1-yl)acetamido)-2-(3,5-difluorophenyl)ethyl)-6-(3-methyl-3-(methylsulfonyl)but-1-yn-1-yl)pyridin-3-yl)-1-(2,2,2-trifluoroethyl)-1H-indazol-3-yl)methylsulfonamido)-3,3-dimethyl-4-oxobutyl)-N-(((phosphonooxy)methoxy)carbonyl)glycine]	2	100	23	2900 (≈ 2250 µM)	> 5770			
Cc1cc(C)c(C(C)(C)CC(=O)N(c2nn(CC(F)(F)F)c3c(-c4ccc(C#CC(C)(C)S(C)(=O)=O)nc4[C@H](Cc4cc(F)cc(F)c4)NC(=O)Cn4nc(C(F)(F)F)c5c4C(F)(F)[C@@H]4C[C@H]54)ccc(Cl)c23)S(C)(=O)=O)c(OP(=O)(O)O)c1 [Compound 48, 2-(4-(N-(4-chloro-7-(2-((S)-1-(2-03bS,4aR)-5,5-difluoro (trifluoromethyl)-3b,4,4a,5-tetrahydro-1H-cyclopropa[3,4]cyclopenta[1,2-c]pyrazolyl)acetamido)-2-(3,5-difluorophenyl)ethyl)-6-(3-methyl-3-(methylsulfonyl)but-1-ynyl)pyridin-3-yl)-1-(2,2,2-trifluoroethyl)-1H-indazol-3-yl)methylsulfonamido)-2-methyl oxobutan-2-yl)-3,5-dimethylphenyl dihydrogen phosphate]			16			777	948	60^b %
